The values that follow are results of earlier work, collected in patent US9988396B2, “Oxaziridine compound and production method thereof” (SEED RESEARCH INSTITUTE CO., LTD., priority 2016, dated 2018).

The test system of one data set is pathogens of candidiasis. As to conditions: statement in background, from patent document 1 (WO2015/030197).
The subject of data set [1] is PANC-1 pancreas cancer cell.

On to `CC=C(Cc1ccccc1)C12CC(O)CCN1O2` (stereo not drawn) [Kakeromycin], for which the “antifungal activity / antibacterial activity against pathogens of candidiasis” value in the data set with pathogens of candidiasis is on record as “strong antibacterial activity”. For the same compound, the cytotoxicity result (in data set [1]; in the data set on HepG2 liver cancer cell) was “shows cytotoxicity” throughout.
